Laboratory results published in patent publication US7928099B2, “Pyrimido [4,5-D] azepine derivatives as 5-HT2c agonists” (Pfizer Inc, priority 2007, dated 2011).
pEC50, pKi: −log10 of the molar value. Where a name gives a salt, the structure may show the parent alone.

Assays:
[1] = target: T1, human recombinant 5-HT2c receptor (Homo sapiens, UniProt P28335); test: 3H-meselurgine radioligand binding SPA, membranes from Swiss 3T3 cells (Method 2); conditions: 3H-meselurgine displacement, Cheng-Prusoff; Swiss 3T3 membranes; read-out: Binding Affinity Ki
T1 construct: expressed in transfected cells; host or cells: CHO K1 (Chinese hamster ovary), stably transfected
T1 sequence (P28335 33-458): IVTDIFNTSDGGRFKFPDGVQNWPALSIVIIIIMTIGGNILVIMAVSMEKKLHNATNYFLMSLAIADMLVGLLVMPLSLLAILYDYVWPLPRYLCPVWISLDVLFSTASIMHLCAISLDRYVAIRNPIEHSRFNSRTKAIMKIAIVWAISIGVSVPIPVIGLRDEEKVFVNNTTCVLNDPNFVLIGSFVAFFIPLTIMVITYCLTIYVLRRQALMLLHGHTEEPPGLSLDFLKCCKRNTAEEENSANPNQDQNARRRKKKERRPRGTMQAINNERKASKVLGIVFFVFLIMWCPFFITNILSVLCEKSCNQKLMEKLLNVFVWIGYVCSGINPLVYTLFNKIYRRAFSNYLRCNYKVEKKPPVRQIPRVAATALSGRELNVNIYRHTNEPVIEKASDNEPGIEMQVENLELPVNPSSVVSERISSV
Procedure: (§1) The compounds of the invention were evaluated for biological activity by measuring the agonist affinity (EC50) and efficacy (Emax) at the human recombinant 5-HT2c receptor expressed in CHO K1 cells, using a fluorescent based Ca^2+ mobilisation assay format compatible with FLIPR technology (Method 1). Additionally, the binding activity of a compound was determined by measuring its affinity for the human recombinant 5-HT2c receptor membranes from Swiss 3T3 cells (Method 2).
The compounds were tested for biological activity by their ability to inhibit binding of the radioligand ^3H-meselurgine at the human recombinant 5-HT2C receptor expressed in the Swiss 3T3 cells using a scintillation proximity assay (SPA) technology.
Swiss 3T3 stably transfected with the 5-HT2C receptor were cultured under standard cell culture techniques. Specifically, cells were grown in 50 mL growth medium (Dulbecco's Modified Eagle's Medium (DMEM) culture media supplemented with 10% dialysed foetal calf serum (FCS), 2 mM penicillin/streptomycin and 20 μg/mL geneticin) in 225 cm^2 flasks at 37° C. and 5% CO2. Cells were grown to 60-80% confluency, harvested using trypsin-EDTA and pelleted by centrifugation for long-term storage at −80° C.
Cell pellets were thawed on ice and resuspended in 3 mL of membrane preparation buffer (see Media and Buffers for composition) per 1 mL of packed cell. The suspension was homogenised on ice for several 5 s intervals using a hand-held homogeniser. The homogenate was then centrifuged at 1,000 rpm for 5 min at 4° C.
The supernatants were then collected and retained. Initial cell & nuclei pellets (P1) were subsequently rehomogenised and centrifuged using the conditions cited above, and the supernatants collected and pooled with those retained from the first spin.
The pooled supernatants were centrifuged at 19,500 rpm for 45 min at 4° C., and the supernatants discarded. The pellets (P2) were then resuspended in 3 mL of membrane preparation buffer per 1 mL of the original packed cell volume. Protein concentrations were subsequently measured and the membrane suspension was finally frozen in aliquots of set volume and stored at −80° C. prior to use in assays.
For each batch of membrane used, optimal concentrations of Polylysine YSi SPA beads and membrane were determined. The assay free radioligand concentration was expressed as a percentage of the total free radioligand concentration to give an estimate of the radioligand depletion.
The affinity of ^3H-meselurgine for the human recombinant 5-HT2c receptor was determined for each membrane batch at the selected protein and bead concentrations. […] The mean KD for ^3H-meselurgine at a batch of membranes was determined from data from a minimum of three separate assays.
The required amount of membrane, was thawed on ice and added to a pre-determined volume of bead suspension in 50 mM HEPES buffer, pH 7.4. The beads were then pre-coupled by incubating the predetermined protein quantity per mg of bead on a roller 4° C. for 1 h. Subsequently, the bead/membrane complex was spun down at 1000 rpm for 5 min. The resulting pellet was resuspended in assay buffer at the specific concentration required for the final assay.
An aliquot of [^3H]-meselurgine stock was diluted in binding assay buffer to give a pre-determined final assay concentration less than the equilibrium dissociation constant (KD) value.
All test compounds were prepared at a concentration of 4 mM in 100% dimethyl sulphoxide (DMSO) from dry samples.
The same volume of assay buffer was added to specific wells of the plate to enable subsequent measurement of total radioligand binding. Furthermore, 5 μL of Mianserin at 25 μM (2.5 μM final assay concentration was subsequently added to pre-determined wells to determine non-specific binding (NSB).

[2] = target: T1, human recombinant 5-HT2c receptor; test: FLIPR fluorescent Ca2+ mobilisation agonist assay in CHO K1 cells (Method 1); format: cell-based; conditions: for pEC50: agonist affinity, FLIPR
Procedure: as §1
The agonist affinity of the compounds were tested by measuring their ability to induce a fluorescent based Ca^2+ mobilization signal in a FLIPR assay using CHO K1 cells expressing recombinant human 5-HT2C receptor. Both agonist affinity (EC50) and efficacy (Emax) were determined.
Chinese hamster ovary cells (CHO K1) stably transfected with the 5-HT2c receptor were cultured under standard cell culture techniques. Specifically, cells were grown at 37° C. and 5% CO2 in Dulbecco's Modified Eagle's Medium (DMEM) culture media supplemented with 10% dialysed foetal calf serum (FCS), 1% non-essential amino acids, 1 mM sodium pyruvate, 800 μg/mL geneticin and 50 μg/ml zeocin. Cells were harvested for passaging and storage using trypsin-EDTA, centrifugation and resuspension in culture medium. Cells were grown to 60-80% confluency, harvested and adjusted to 15-20×10^6 cells/ml/vial in medium/10% DMSO and stored long-term at −80° C.
Cells were seeded into black-walled clear-bottomed 384 well plates 24 h before use. Frozen cells were defrosted in a 37° C. water bath and immediately transferred into 1 mL/vial 37° C. culture medium, diluted to 10 ml and DMSO removed by centrifugation. The cells were resuspended in 15 ml/vial of cell culture medium, counted and adjusted to give 500,000 cells/mL (10,000 cells/well). […] of cell suspension was added to the 384 well plates which were then incubated overnight at 37° C.
The maximum agonist response was determined with 5-HT at a final assay concentration of 10 μM in the diluent above. The minimum response was determined with Dulbeccos PBS (+CaCl2, +MgCl2) with 0.9% DMSO and 0.05% pluronic F-127. Test compounds, maximum and minimum controls were added to a 384 well polypropylene plate.
The FLIPR calcium assay reagent was diluted with assay buffer (Hank's Balanced Salt Solution (HBSS))/20 mM HEPES and 2.5 mM probenecid (diluted with 1M Sodium hydroxide and DPBS (+CaCl2, +MgCl2)).
20 μl/well FLIPR calcium assay reagent was added to the cell plates, which were incubated for 1 h at 37° C. Cell plates and compound plates were then transferred onto the FLIPR. The assay was run using the appropriate FLIPR program, which initiates the reaction by transferring 15 μL compound into the corresponding, well of the cell plate.
The statistical parameter exported from each well was the max peak height of the response.

[3] = CHO-K1, efficacy, percentage of mean maximal response to 10 μM 5-HT
[4] = efficacy, percentage of mean maximal response to 10 μM 5-HT

Molecule	pKi [1]	Emax [2, 3] [%]	pEC50 [2]	Emax % [2, 4] [%]	Emax [2, 4] [%]
CO[C@H]1CCN(c2nc(Cc3ccccc3)nc3c2CCNCC3)C1 [Example 26, 2-benzyl-4-[(3S)-3-methoxypyrrolidin-1-yl]-6,7,8,9-tetrahydro-5H-pyrimido[4,5-d]azepine hydrochloride]	6.64	60.9	6.38	–	–
CC(C)(c1ccccc1)c1nc2c(c(N3CCOCC3)n1)CCNCC2 [Example 11, 2-(1-Methyl-1-phenylethyl)-4-morpholin-4-yl-6,7,8,9-tetrahydro-5H-pyrimido[4,5-d]azepine]	7.13	75.2	6.05	–	–
CC(c1ccccc1)c1ncc2c(n1)CCNCC2 (centres unmarked) [Example 2, 2-(1-Phenylethyl)-6,7,8,9-tetrahydro-5H-pyrimido[4,5-d]azepine]	6.85	84.9	6.70	–	–
OCCNc1nc(Cc2ccccc2)nc2c1CCNCC2 [Example 23, 2-[(2-benzyl-6,7,8,9-tetrahydro-5H-pyrimido[4,5-d]azepin-4-yl)amino]ethanol hydrochloride]	6.97	72.6	6.80	–	–
COc1nc(C(F)(F)c2ccccc2)nc2c1CCNCC2 [Example 72, 2-(Difluoro-phenyl-methyl)-4-methoxy-6,7,8,9-tetrahydro-5H-pyrimido[4,5-d]azepine]	7.11	41.1	7.10	–	–
CN(C)c1nc(N(C)Cc2ccccc2)nc2c1CCNCC2 [Example 14, N-2-benzyl-N-2,N-4,N-4-trimethyl-6,7,8,9-tetrahydro-5H-pyrimido[4,5,d]azepin-2-amine]	6.84	50.8	6.55	–	–
CC(C)(c1ccccc1)c1ncc2c(n1)CCNCC2 [Example 9, 2-(1-Methyl-1-phenylethyl)-6,7,8,9-tetrahydro-5H-pyrimido[4,5-d]azepine]	6.40	52.6	6.14	–	–
OC1CCN(c2nc(Cc3ccccc3)nc3c2CCNCC3)CC1 [Example 38, 1-(2-benzyl-6,7,8,9-tetrahydro-5H-pyrimido[4,5-d]azepin-4-yl)piperidin-4-ol hydrochloride]	6.29	66	6.47	–	–
c1ccc(Cc2nc3c(c(C4CC4)n2)CCNCC3)cc1 [Example 53, 2-Benzyl-4-cyclopropyl-6,7,8,9-tetrahydro-5H-pyrimido[4,5-d]azepine]	6.98	49.6	6.53	–	–
CC(CN1CCOCC1)Oc1nc(Cc2ccccc2)nc2c1CCNCC2 (centres unmarked) [Example 82, 2-benzyl-4-(1-methyl-2-morpholin-4-ylethoxy)-6,7,8,9-tetrahydro-5H-pyrimido[4,5-d]azepine]	–	71.9	6.52	–	–
CCNc1nc(N2CCc3ccccc3C2)nc2c1CCNCC2 [Example 87, 2-(3,4-dihydroisoquinolin-2(1H)-yl)-N-ethyl-6,7,8,9-tetrahydro-5H-pyrimido-[4,5-d]azepin-4-amine]	–	57.1	7.32	–	–
C1Cc2nc(N3CCOCC3)nc(N3CCSCC3)c2CCN1 [Example 96, 2-morpholin-4-yl-4-thio-morpholin-4-yl-6,7,8,9-tetrahydro-5H-pyrimido-[4,5-d]azepin-4-amine]	–	66.9	6.51	–	–
CNc1nc(N2CCSCC2)nc2c1CCNCC2 [Example 93, N-methyl-2-thio-morpholin-4-yl-6,7,8,9-tetrahydro-5H-pyrimido-[4,5-d]azepin-4-amine]	–	77	7.94	–	–
N-benzyl-N-methyl-6,7,8,9-tetrahydro-5H-pyrimido[4,5-d]azepin-2-amine hydrochloride [Example 49]	–	–	6.74	71.20	–
CN(Cc1ccccc1)c1nc2c(c(N3CCOCC3)n1)CCNCC2 [Example 105, N-benzyl-N-methyl-4-morpholin-4-yl-6,7,8,9-tetrahydro-5H-pyrimido-[4,5-d]azepin-2-amine]	–	64.1	6.69	–	–
CC(C)(C)OCCOc1nc(Cc2ccccc2)nc2c1CCNCC2 [Example 81, 2-benzyl-4-(2-tert-butoxyethoxy)-6,7,8,9-tetrahydro-5H-pyrimido[4,5-d]azepine]	–	60.3	6.71	–	–
c1ccc(CCNc2nc(N3CCSCC3)nc3c2CCNCC3)cc1 [Example 91, N-(2-phenylethyl)-2-thiomorpholin-4-yl-6,7,8,9-tetrahydro-5H-pyrimido-[4,5-d]azepin-4-amine]	–	69.6	6.73	–	–
N#Cc1ccc(CCOc2nc(Cc3ccccc3)nc3c2CCNCC3)cc1 [Example 75, 4-{2-[(2-benzyl-6,7,8,9-tetrahydro-5H-pyrimido-[4,5-d]azepin-4-yl)oxy]ethyl}-benzonitrile]	–	90.1	7.24	–	–
c1ccc(Cc2nc3c(c(OCC4CCOCC4)n2)CCNCC3)cc1 [Example 80, 2-benzyl-4-(tetrahydro-2H-pyran-4-ylmethoxy)-6,7,8,9-tetrahydro-5H-pyrimido[4,5-d]azepine]	–	74.2	6.74	–	–
CNc1nc(C(C)c2ccccc2)nc2c1CCNCC2 (centres unmarked) [Example 3, N-methyl-2-(1-phenylethyl)-6,7,8,9-tetrahydro-5H-pyrimido[4,5-d]azepin-4-amine]	–	–	–	–	60.8
C1Cc2nc(NC3CC3)nc(N3CCSCC3)c2CCN1 [Example 109, N-cyclopropyl-4-thio-morpholin-4-yl-6,7,8,9-tetrahydro-5H-pyrimido-[4,5-d]azepin-2-amine]	–	87.7	6.61	–	–
